Data from ChEMBL document CHEMBL4825708 (J Med Chem, 2021).
Converted amounts (≈) assume the structure as drawn.

Legend:
in vitro [1] = conditions: human, hepatocytes
in vitro [2] = conditions: rat, microsomes
in vitro [3] = conditions: mouse, mouse hepatocytes
in vivo [4] = conditions: beagle, dog, iv, 1 mg/kg
in vitro [5] = conditions: cynomolgus monkey, cynomolgus monkey liver microsomes
Nav1.5 = Nav1.5 (Homo sapiens, UniProt Q14524); test: Inhibition of human Nav1.5 expressed in CHO cells at 10 uM by QPatch HT assay; conditions: CHO cells expressing human Nav1.5
CYP2C19 = CYP2C19 (Homo sapiens, UniProt P33261); test: Time dependent inhibition of CYP2C19 in human liver microsomes using (s)-mephenytoin as substrate incubated for 40 mins by LC-MS/MS analysis
Chain of CYP2C19 (P33261 whole entry): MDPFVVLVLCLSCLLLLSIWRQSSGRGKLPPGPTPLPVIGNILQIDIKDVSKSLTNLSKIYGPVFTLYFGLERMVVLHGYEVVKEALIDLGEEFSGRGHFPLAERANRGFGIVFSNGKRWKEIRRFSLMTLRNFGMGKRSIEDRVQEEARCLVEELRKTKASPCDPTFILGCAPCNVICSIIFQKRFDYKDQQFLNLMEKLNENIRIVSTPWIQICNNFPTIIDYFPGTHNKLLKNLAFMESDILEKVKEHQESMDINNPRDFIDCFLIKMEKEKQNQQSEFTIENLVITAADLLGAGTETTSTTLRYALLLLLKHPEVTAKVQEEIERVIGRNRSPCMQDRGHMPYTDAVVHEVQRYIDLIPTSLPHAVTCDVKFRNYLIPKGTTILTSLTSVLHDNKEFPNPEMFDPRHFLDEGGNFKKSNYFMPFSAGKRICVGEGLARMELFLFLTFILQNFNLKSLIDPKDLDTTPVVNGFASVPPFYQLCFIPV

CYP3A4 [6] = biological target: T1, CYP3A4 (Homo sapiens, UniProt P08684); test: Time dependent inhibition of CYP3A4 in human liver microsomes using midazolam as substrate incubated for 10 mins by LC-MS/MS analysis
T1 sequence (P08684 whole entry): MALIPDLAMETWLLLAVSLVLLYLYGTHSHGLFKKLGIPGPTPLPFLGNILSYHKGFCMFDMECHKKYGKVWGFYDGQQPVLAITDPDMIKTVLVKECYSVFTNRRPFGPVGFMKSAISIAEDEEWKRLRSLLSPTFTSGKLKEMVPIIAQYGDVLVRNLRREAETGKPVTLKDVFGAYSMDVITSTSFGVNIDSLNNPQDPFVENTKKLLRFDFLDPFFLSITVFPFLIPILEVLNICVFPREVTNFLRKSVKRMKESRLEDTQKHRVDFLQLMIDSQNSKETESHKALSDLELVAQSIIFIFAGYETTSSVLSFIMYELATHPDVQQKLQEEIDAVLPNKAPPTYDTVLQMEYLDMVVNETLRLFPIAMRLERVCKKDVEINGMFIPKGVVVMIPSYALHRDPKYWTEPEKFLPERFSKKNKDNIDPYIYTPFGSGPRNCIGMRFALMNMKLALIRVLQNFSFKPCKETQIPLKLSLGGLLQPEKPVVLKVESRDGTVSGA

Estrogen receptor [7] = biological target: T2, Estrogen receptor (Homo sapiens, UniProt P03372); conditions: mcf7
T2 sequence (P03372 whole entry): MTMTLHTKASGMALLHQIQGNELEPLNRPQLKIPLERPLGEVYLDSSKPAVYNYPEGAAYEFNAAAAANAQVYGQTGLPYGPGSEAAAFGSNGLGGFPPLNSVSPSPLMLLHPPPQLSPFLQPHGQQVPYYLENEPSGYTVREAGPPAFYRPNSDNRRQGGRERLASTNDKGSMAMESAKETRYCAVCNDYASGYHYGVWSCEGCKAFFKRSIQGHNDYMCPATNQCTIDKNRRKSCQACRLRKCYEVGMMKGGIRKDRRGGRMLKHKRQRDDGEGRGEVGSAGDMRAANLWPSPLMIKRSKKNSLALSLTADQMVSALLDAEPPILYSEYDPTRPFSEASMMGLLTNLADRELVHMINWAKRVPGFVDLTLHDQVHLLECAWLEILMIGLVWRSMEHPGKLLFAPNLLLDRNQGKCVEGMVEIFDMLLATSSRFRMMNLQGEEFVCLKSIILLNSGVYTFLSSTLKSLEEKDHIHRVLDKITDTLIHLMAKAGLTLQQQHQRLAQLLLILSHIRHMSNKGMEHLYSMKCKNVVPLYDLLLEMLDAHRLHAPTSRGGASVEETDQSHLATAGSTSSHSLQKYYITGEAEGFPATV
Description: Induction of estrogen receptor degradation in human MCF7 cells incubated for 4 hrs by Alexafluor -488 conjugate anti-mouse IgG staining based fluorescence method

Cytochrome P450 2C9 = Cytochrome P450 2C9 (Homo sapiens, UniProt P11712); test: Reversible inhibition of CYP2C9 in human liver microsomes using (s)-warfarin as substrate preincubated for 30 mins followed by NADPH addition by LC/MS/MS analysis
Chain of Cytochrome P450 2C9 (P11712 whole entry): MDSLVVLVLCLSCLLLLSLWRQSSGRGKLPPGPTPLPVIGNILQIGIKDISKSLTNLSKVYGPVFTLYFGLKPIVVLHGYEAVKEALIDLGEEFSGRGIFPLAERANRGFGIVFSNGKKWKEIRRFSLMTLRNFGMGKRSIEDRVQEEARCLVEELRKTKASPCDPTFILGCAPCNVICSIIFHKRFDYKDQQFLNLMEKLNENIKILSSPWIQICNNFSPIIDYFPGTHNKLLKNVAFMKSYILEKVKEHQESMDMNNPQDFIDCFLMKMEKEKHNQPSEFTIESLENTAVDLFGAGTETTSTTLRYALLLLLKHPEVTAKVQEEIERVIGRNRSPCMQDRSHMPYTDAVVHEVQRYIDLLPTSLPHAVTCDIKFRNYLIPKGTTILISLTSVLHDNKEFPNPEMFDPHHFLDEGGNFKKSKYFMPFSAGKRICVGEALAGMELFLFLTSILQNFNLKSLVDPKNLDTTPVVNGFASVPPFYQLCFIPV

MCF7 = test: cells; conditions: Homo sapiens, MCF7, 72 h
Description: Antiproliferative activity against human MCF-7 cells incubated for 72 hrs by Cell-titer Glo assay

in vivo [8] = conditions: cynomolgus monkey, po, 100 mg/kg
[9] = Apparent permeability in MDCK cells across apical to basolateral side at 10 uM incubated for 3 hrs by LC-MS/MS analysis; conditions: dog
in vitro [10] = conditions: mouse, mouse liver microsomes
CYP2D6 = CYP2D6 (Homo sapiens, UniProt P10635); test: Time dependent inhibition of CYP2D6 in human liver microsomes using dextromethorphan as substrate incubated for 10 mins by LC-MS/MS analysis
Chain of CYP2D6 (P10635 whole entry): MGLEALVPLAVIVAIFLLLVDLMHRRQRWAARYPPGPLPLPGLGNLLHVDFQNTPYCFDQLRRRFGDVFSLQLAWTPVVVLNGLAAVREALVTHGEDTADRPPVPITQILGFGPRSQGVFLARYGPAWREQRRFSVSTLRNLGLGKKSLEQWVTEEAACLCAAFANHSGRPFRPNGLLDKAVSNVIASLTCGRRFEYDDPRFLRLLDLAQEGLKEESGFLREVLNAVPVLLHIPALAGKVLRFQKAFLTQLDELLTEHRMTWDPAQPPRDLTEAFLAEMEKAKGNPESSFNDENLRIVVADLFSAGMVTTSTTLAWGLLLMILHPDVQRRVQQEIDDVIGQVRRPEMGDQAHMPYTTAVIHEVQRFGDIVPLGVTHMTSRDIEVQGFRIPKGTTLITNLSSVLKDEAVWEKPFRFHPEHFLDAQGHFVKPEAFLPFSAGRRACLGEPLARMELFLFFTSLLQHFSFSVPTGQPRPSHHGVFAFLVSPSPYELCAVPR

[11] = Volume of distribution at steady state in Beagle dog at 1 mg/kg, iv or po measured after 0.033 to 24 hrs by LC/MS/MS analysis; conditions: in vivo
[12] = Kinetic solubility of compound at pH 7.4; conditions: buffer
CYP3A4 [13] = biological target: T1, CYP3A4; test: Time dependent inhibition of CYP3A4 in human liver microsomes using testosterone as substrate incubated for 10 mins by LC-MS/MS analysis
in vitro [14] = conditions: rat, hepatocytes
in vitro [15] = conditions: dog, dog hepatocytes
in vitro [16] = conditions: human, microsomes
Estrogen receptor [17] = biological target: T2, Estrogen receptor
Description: Antagonist activity at estrogen receptor in human T47D cells incubated for 18 hrs by ultra high sensitivity luminescence reporter gene assay

in vivo [18] = conditions: beagle, dog, po, 1 mg/kg
[19] = Volume of distribution at steady state in Sprague-Dawley rat at 1 mg/kg, iv or po measured after 0.033 to 24 hrs by LC/MS/MS analysis; conditions: in vivo
[20] = Half life in cynomolgus monkey at 1 mg/kg, iv or po measured after 0.033 to 24 hrs by LC/MS/MS analysis; conditions: in vivo
[21] = Half life in Beagle dog at 1 mg/kg, iv or po measured after 0.033 to 24 hrs by LC/MS/MS analysis; conditions: in vivo
CYP2C9 = CYP2C9 (Homo sapiens, UniProt P11712); test: Time dependent inhibition of CYP2C9 in human liver microsomes using s-warfarin as substrate incubated for 30 mins by LC-MS/MS analysis
Chain of CYP2C9 (P11712 whole entry): as the sequence (P11712 whole entry) above

[22] = biological target: Voltage-gated inwardly rectifying potassium channel KCNH2 (Homo sapiens, UniProt Q12809); test: Inhibition of human ERG expressed in HEK293 cells incubated for 5 mins by patch clamp assay
Chain of Voltage-gated inwardly rectifying potassium channel KCNH2 (Q12809 whole entry): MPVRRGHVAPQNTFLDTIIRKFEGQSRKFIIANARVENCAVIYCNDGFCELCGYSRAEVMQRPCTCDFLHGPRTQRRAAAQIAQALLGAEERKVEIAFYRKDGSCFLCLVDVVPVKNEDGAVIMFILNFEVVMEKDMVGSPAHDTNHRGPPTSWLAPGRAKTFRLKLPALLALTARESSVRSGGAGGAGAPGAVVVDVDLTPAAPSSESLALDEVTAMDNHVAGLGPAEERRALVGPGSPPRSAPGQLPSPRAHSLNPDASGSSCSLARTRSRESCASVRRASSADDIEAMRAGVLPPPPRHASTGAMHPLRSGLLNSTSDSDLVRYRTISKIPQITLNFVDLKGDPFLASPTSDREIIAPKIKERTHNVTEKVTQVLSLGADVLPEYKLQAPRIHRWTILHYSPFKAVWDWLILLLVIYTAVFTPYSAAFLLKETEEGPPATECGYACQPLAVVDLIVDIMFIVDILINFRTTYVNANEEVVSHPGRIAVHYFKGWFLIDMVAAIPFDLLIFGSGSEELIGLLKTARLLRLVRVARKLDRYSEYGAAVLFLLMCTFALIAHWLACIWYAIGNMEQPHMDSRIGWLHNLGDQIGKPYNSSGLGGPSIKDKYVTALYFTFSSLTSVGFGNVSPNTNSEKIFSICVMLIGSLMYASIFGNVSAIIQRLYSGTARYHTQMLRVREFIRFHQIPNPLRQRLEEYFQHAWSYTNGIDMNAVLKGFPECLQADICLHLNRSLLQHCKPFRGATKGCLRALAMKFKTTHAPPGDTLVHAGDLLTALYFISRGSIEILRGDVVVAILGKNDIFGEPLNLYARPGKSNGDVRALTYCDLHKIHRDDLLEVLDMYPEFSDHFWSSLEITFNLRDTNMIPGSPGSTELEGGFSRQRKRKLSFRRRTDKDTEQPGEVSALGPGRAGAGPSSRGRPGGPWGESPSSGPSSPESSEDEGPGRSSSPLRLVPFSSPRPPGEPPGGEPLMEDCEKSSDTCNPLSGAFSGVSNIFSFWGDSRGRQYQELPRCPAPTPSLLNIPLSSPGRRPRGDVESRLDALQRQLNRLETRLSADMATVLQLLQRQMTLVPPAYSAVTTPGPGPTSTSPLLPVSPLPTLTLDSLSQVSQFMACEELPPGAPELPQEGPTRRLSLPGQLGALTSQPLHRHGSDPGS

in vivo [23] = conditions: cynomolgus monkey, iv, 1 mg/kg
in vitro [24] = conditions: dog, dog liver microsomes
Cytochrome P450 2C19 = Cytochrome P450 2C19 (Homo sapiens, UniProt P33261); test: Reversible inhibition of CYP2C19 in human liver microsomes using (S)-Mephenytoin as substrate preincubated for 40 mins followed by NADPH addition by LC/MS/MS analysis
Chain of Cytochrome P450 2C19 (P33261 whole entry): as the sequence (P33261 whole entry) above

in vivo [25] = conditions: cynomolgus monkey, po, 1 mg/kg
in vivo [26] = conditions: Sprague-Dawley, rat, po, 100 mg/kg
in vitro [27] = conditions: cynomolgus monkey, cynomolgus monkey hepatocytes
[28] = Half life in Sprague-Dawley rat at 1 mg/kg, iv or po measured after 0.033 to 24 hrs by LC/MS/MS analysis; conditions: in vivo
[29] = Volume of distribution at steady state in cynomolgus monkey at 1 mg/kg, iv or po measured after 0.033 to 24 hrs by LC/MS/MS analysis; conditions: in vivo
Cav1.2 = Cav1.2 (Homo sapiens, UniProt Q13936); test: Inhibition of human Cav1.2 expressed in CHO cells at 10 uM by QPatch HT assay; conditions: CHO cells expressing human Cav1.2
in vivo [30] = conditions: Sprague-Dawley, rat, iv, 1 mg/kg
Cytochrome P450 2D6 = Cytochrome P450 2D6 (Homo sapiens, UniProt P10635); test: Reversible inhibition of CYP2D6 in human liver microsomes using dextromethorphan as substrate preincubated for 10 mins followed by NADPH addition by LC/MS/MS analysis
Chain of Cytochrome P450 2D6 (P10635 whole entry): as the sequence (P10635 whole entry) above

in vivo [31] = conditions: Sprague-Dawley, rat, po, 1 mg/kg
CYP1A2 = biological target: T3, CYP1A2 (Homo sapiens, UniProt P05177); test: Time dependent inhibition of CYP1A2 in human liver microsomes using phenacetin as substrate incubated for 30 mins by LC-MS/MS analysis
T3 sequence (P05177 whole entry): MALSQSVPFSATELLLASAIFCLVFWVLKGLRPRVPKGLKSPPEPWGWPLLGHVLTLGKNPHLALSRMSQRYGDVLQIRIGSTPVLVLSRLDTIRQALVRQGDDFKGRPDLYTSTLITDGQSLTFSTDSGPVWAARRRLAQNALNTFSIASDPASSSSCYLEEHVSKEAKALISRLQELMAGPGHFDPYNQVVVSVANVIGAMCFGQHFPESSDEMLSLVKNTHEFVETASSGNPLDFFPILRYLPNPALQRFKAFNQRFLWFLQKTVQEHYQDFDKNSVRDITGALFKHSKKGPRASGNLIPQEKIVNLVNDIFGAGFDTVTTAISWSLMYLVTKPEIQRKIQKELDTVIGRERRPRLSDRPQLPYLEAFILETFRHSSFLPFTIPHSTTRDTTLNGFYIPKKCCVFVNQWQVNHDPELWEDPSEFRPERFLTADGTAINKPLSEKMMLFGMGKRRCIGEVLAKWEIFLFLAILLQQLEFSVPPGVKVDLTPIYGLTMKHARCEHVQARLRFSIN

[32] = Distribution coefficient, logD of the compound at pH 7.4; conditions: octanol/water

C[C@@H]1Cc2c([nH]c3ccccc23)[C@@H](c2c(F)cc(NC3CN(CCCF)C3)cc2F)N1CC(F)(F)CO [GIREDESTRANT]
CLint scaled at 1 h (in vitro [1]): 11 mL/min/kg
CLint scaled at 1 h, 1 µM (in vitro [2]): 19 mL/min/kg
CLint scaled at 1 h (in vitro [3]): 33 mL/min/kg
clearance (in vivo [4]): 3 mL/min/kg
CLint scaled at 1 h, 1 µM (in vitro [5]): 22 mL/min/kg
inhibition at 10 µM (Nav1.5): 16.7%
inhibition at 40 min (CYP2C19): 1.2%
inhibition at 10 min (CYP3A4 [6]): -0.9%
DC50 (Estrogen receptor [7]): 0.03 nM
IC50 (Cytochrome P450 2C9): > 10000 nM
EC50 (MCF7): 0.4 nM
bioavailability (in vivo [8]): 29%
Papp A→B at 3 h, 10 µM [9]: 3 ×10⁻⁶ cm/s
CLint scaled at 1 h, 1 µM (in vitro [10]): 52 mL/min/kg
inhibition at 10 min (CYP2D6): 8.1%
Vd [11]: 5.1 L/kg
solubility kinetic [12]: 135 µM (≈ 70.5 µg/mL)
inhibition at 10 min (CYP3A4 [13]): -4%
CLint scaled at 1 h (in vitro [14]): 23 mL/min/kg
CLint scaled at 1 h (in vitro [15]): < 7.8 mL/min/kg
CLint scaled at 1 h, 1 µM (in vitro [16]): 11 mL/min/kg
IC50 (Estrogen receptor [17]): 0.05 nM
bioavailability (in vivo [18]): 55%
Vd [19]: 15 L/kg
half-life [20]: 7.3 h
half-life [21]: 24 h
inhibition at 0.5 h (CYP2C9): 19%
IC50 [22]: 6100 nM
clearance (in vivo [23]): 19 mL/min/kg
CLint scaled at 1 h, 1 µM (in vitro [24]): 13 mL/min/kg
IC50 (Cytochrome P450 2C19): > 10000 nM
bioavailability (in vivo [25]): 17%
bioavailability (in vivo [26]): 65%
CLint scaled at 1 h (in vitro [27]): 31 mL/min/kg
half-life [28]: 8 h
Vd [29]: 9.4 L/kg
inhibition at 10 µM (Cav1.2): 15.7%
clearance (in vivo [30]): 21 mL/min/kg
IC50 (Cytochrome P450 2D6): > 10000 nM
bioavailability (in vivo [31]): 41%
inhibition at 0.5 h (CYP1A2): 1%
logD [32]: 2.9
